According to patent publication US20260166045A1, “COMBINATION THERAPY COMPRISING GSPT1-DIRECTED MOLECULAR GLUE DEGRADERS AND PI3K/AKT/mTOR PATHWAY INHIBITORS” (Monte Rosa Therapeutics, Inc., priority 2022, published 2026):

Experiments:
[1] = test system: NCI-H1836 cell line; test: CTG viability, 11x11 concentration matrix, Loewe synergy (SCLC); details: inhibitor combined with compound 1-1, 11x11 matrix, 72 hours
Description: (§7) Cells were cultured in the media recommended by the supplier.
(§8) On the day before compound addition, cells were seeded in 384-well-plates (white with clear flat bottom) at the densities indicated in Table 6 in 40 μL of growth medium. The next day, compounds were dispensed from 10 mM stocks using a HP D300 dispenser according to the concentration matrices described above. For each cell line, the compound concentration matrices were dispensed twice as side-by-side duplicates on one 384-well-plate. In addition, each plate contained 14 wells with only growth medium and 44 wells with cells treated with DMSO alone to calculate the average background and maximal signals, respectively. The final DMSO concentration was normalized to 0.2% across the plates. Plates were then incubated for 72 hours. CellTiter-Glo® Luminescent Cell Viability Assay (CTG, Promega G7570) reagent was prepared according to the manufacturer's instructions. Plates were equilibrated to room temperature for approximately 30 minutes, 25 μL CTG reagent was added to each well and plates were mixed on an orbital shaker for 10 minutes to allow for cell lysis. After further incubation for 20 minutes at room temperature, the clear bottoms of the plates were pasted with white back seal and luminescence was read on an EnVision plate reader (measurement time 0.1 seconds).

[2] = test system: NCI-H1876 cell line; test: as above; details: inhibitor combined with compound 1-1, 11x11 matrix, 72 hours
Description: as §7, §8

[3] = test system: NCI-H209 cell line; test: as above; details: inhibitor combined with compound 1-1, 11x11 matrix, 72 hours
Description: as §7, §8

[4] = test system: NCI-H526 cell line; test: as above; details: inhibitor combined with compound 1-1, 11x11 matrix, 72 hours
Description: as §7, §8

[5] = test system: NCI-H69 cell line; test: as above; details: inhibitor combined with compound 1-1, 11x11 matrix, 72 hours
Description: as §7, §8

[6] = test system: DOHH-2 cell line; test: CTG viability, 11x11 concentration matrix, Loewe synergy (lymphoma); details: inhibitor combined with compound 1-1, 11x11 matrix, 72 hours
Description: as §7, §8

[7] = test system: DB cell line; test: as above; details: inhibitor combined with compound 1-1, 11x11 matrix, 72 hours
Description: as §7, §8

[8] = test system: WSU-DLCL2 cell line; test: as above; details: inhibitor combined with compound 1-1, 11x11 matrix, 72 hours
Description: as §7, §8

[9] = test system: RAJI cell line; test: as above; details: inhibitor combined with compound 1-1, 11x11 matrix, 72 hours
Description: as §7, §8

[10] = test system: SU-DHL-6 cell line; test: as above; details: inhibitor combined with compound 1-1, 11x11 matrix, 72 hours
Description: as §7, §8

[11] = test system: MM.1S cell line; test: CTG viability, 11x11 concentration matrix, Loewe synergy (multiple myeloma); details: inhibitor combined with compound 1-1, 11x11 matrix, 72 hours
Description: as §7, §8

[12] = test system: OPM-2 cell line; test: as above; details: inhibitor combined with compound 1-1, 11x11 matrix, 72 hours
Description: as §7, §8

[13] = test system: U266B1 cell line; test: as above; details: inhibitor combined with compound 1-1, 11x11 matrix, 72 hours
Description: as §7, §8

[14] = test system: RPMI 8226 cell line; test: as above; details: inhibitor combined with compound 1-1, 11x11 matrix, 72 hours
Description: as §7, §8

[15] = test system: KMS-34 cell line; test: as above; details: inhibitor combined with compound 1-1, 11x11 matrix, 72 hours
Description: as §7, §8

[16] = test system: CAL51 cell line; test: CellTiter-Glo 2.0 cell viability, 7x7 combination dose response matrix, synergy scoring; format: cell-based
Description: (§1) A study was undertaken to determine whether the combination of a GSPT1-directed MGD and an inhibitor of the PI3K/AKT/mTOR pathway could be effective in killing cancer cells and whether certain combination could elicit a greater than additive effect on cell killing.
(§2) FIG. 1 is a flow diagram of the method used to assess cancer cell killing by a combination of a GSPT1-directed MGD and an inhibitor of the PI3K/AKT/mTOR pathway. Certain of the materials and equipment used in the studies are presented in Table 3 and the cell lines used are presented in Table 4.
(§3) All assays were run in triplicate. Each 384-well plate accommodated six 7×7 dose response matrices (FIG. 2). All compound handling was performed using an Echo 650 Series Acoustic Liquid Handler, which enables fully automated, precise, contact-free acoustic transfer in volumes as low as 2.5 nL.
(§4) The following protocol was used for cell plating: • 1. Warm media to room temperature or 37° C. • 2. Prepare complete phenol-free media by adding 10% FBS+1% Pen-Strep to RPMI 1640 Medium or DMEM. • 3. Aspirate media from T175 tissue culture flask and rinse with 10 ml PBS. • 4. Aspirate PBS and add 2 mL 0.25% trypsin. Incubate the flask at 37° C. for 5 min or until cells are detached. • 5. Add 10 mL complete media to the flask to neutralize the trypsin, then collect cells in a 50 mL conical tube. • 6. Centrifuge cells at 300 g for 5 min. Aspirate media and suspend cell pellet in fresh media. Use cell strainer to strain cells into a new 50 mL conical tube. • 7. […] Mix 100 uL cell suspension with 100 uL trypan blue (1:1) and pipette 20 μL of the mixture into each of 2 counting chambers on a slide. Insert slide. • b. Adjust focus and record the live cell count. At least 2 independent measurements should be taken. […] Cell viability should be greater than 90%. […] Dilute cell suspension to the desired concentration (20000 cells/mL) using complete phenol-free media. Prepare 10 mL cell suspension per plate+an extra 10 mL for priming the liquid handler. • 9. Dispense cells into 384-well plates using the liquid handler at 25 uL/well (500 cells/well). 3 plates should be prepared per compound plate to be treated. • 10. Cells should be dispensed into columns 1-23 only. Media only (no cells) should be dispensed into column 24. • 11. Allow plates to rest at RT for 30 minutes before transferring to the incubator. Incubate cells overnight at 37° C., 95% humidity, and 5% CO2.
(§5) Compound plates were prepared as follows using an Echo 650 Series Acoustic Liquid Handler. • 1. A compound plate containing 7-point dose responses of each compound to be treated is first prepared from stock compounds. • 2. The cell plates are treated with compounds according to the following maps, where the first compound is added across all six 7 by 7 dose response matrices, and its concentration varies by row (FIG. 2; top matrix), whereas the second compound varies for each dose response matrix, and its concentration varies by column (FIG. 2; bottom matrix). Each cell plate receives one Compound A and six different Compound Bs. • 3. To prepare a compound plate, 384-well PP plate with stock compounds (highest concentration) is prepared. Compounds are diluted 1:1000 in the cell plates, e.g. 10 mM on compound plate will be 10 uM on cell plate. A 384-well LDV plate with pre-determined volumes of DMSO is prepared. Echo is used to dilute stock compounds from PP plate into LDV plate to prepare 7-point dose responses.
(§6) Compounds were added to the cells and cell viability was measured after 72 hour incubation using CellTiter-Glo 2.0 Cell Viability Assay (Promega): • 1. For a compound addition, Echo is used to transfer 25 nL from the compound plate wells to the cell plates according to the plate maps shown in FIG. 2. Cell plates are treated in triplicate. Each well of the cell plate has 25 uL media (1:1000 dilution). Incubate cells post-treatment at 37° C., 95% humidity, and 5% CO2 for 72 hrs (step 106). • 2. […]

[17] = test system: MCF7 cell line; test: as above; format: cell-based; details: MCF7
Description: as §1, §2, §3, §4, §5, §6

[18] = test system: MDA-MB-157 cell line; test: as above; format: cell-based; details: combined with M2698 41-10000 nM, first compound 0.41-100 nM
Description: as §1, §2, §3, §4, §5, §6

[19] = test system: MDA-MB-231 cell line; test: as above; format: cell-based; details: MDA-MB-231; combined with M2698 41-10000 nM; first compound 0.41-100 nM
Description: as §1, §2, §3, §4, §5, §6

[20] = CAL51, combined with Alpelisib 41-10000 nM, first compound 0.41-33.33 nM
[21] = CAL51, combined with Alpelisib 41-10000 nM, first compound 0.41-100 nM
[22] = CAL51, combined with Capivasertib 41-10000 nM, first compound 0.41-100 nM
[23] = CAL51, combined with GNE-477 41-10000 nM, first compound 0.41-100 nM
[24] = CAL51, combined with HS173 41-10000 nM, first compound 0.41-100 nM
[25] = CAL51, combined with M2698 41-10000 nM, first compound 0.41-100 nM
[26] = CAL51, combined with Serabelisib 41-10000 nM, first compound 0.41-100 nM
[27] = combined with Alpelisib 41-10000 nM, first compound 0.41-33.33 nM
[28] = combined with Alpelisib 41-10000 nM, first compound 0.41-100 nM
[29] = combined with Capivasertib 41-10000 nM, first compound 0.41-100 nM
[30] = combined with GNE-477 41-10000 nM, first compound 0.41-100 nM
[31] = combined with HS173 41-10000 nM, first compound 0.41-100 nM
[32] = combined with M2698 41-10000 nM, first compound 0.41-100 nM
[33] = combined with Serabelisib 41-10000 nM, first compound 0.41-100 nM

Nc1cc(C(F)(F)F)c(-c2cc(N3CCOCC3)nc(N3CCOCC3)n2)cn1 [buparlisib, 5-(2,6-dimorpholin-4-ylpyrimidin-4-yl)-4-(trifluoromethyl)pyridin-2-amine]
Mean Loewe synergy score, NCI-H1836 [1]: 1.64 | Mean Loewe synergy score, NCI-H1876 [2]: 0.017 | Mean Loewe synergy score, NCI-H209 [3]: 0.78 | Mean Loewe synergy score, NCI-H526 [4]: −0.21 | Mean Loewe synergy score, NCI-H69 [5]: 4.09 | Mean Loewe synergy score, DOHH2 [6]: 1.11 | Mean Loewe synergy score, DB [7]: 1.26 | Mean Loewe synergy score, WSU-DLCL2 [8]: −3.1 | Mean Loewe synergy score, RAJI [9]: 1.34 | Mean Loewe synergy score, SUDHL6 [10]: −2.5 | Mean Loewe synergy score, MM.1S [11]: 1.48 | Mean Loewe synergy score, OPM-2 [12]: −1.38 | Mean Loewe synergy score, U266B1 [13]: −0.19 | Mean Loewe synergy score, RPMI 8226 [14]: 3.57 | Mean Loewe synergy score, KMS-34 [15]: 5.94

CC[C@H](Nc1ncnc2nc[nH]c12)c1nc2cccc(F)c2c(=O)n1-c1ccccc1 [idelalisib, 5-fluoro-3-phenyl-2-[(1S)-1-(7H-purin-6-ylamino)propyl]quinazolin-4-one]
Mean Loewe synergy score, DOHH2 [6]: 4.04 | Mean Loewe synergy score, DB [7]: −3.25 | Mean Loewe synergy score, WSU-DLCL2 [8]: −2.08 | Mean Loewe synergy score, RAJI [9]: 3.47 | Mean Loewe synergy score, SUDHL6 [10]: 5.75

NC1(C(=O)N[C@@H](CCO)c2ccc(Cl)cc2)CCN(c2ncnc3[nH]ccc23)CC1 [Capivasertib, 4-amino-N-[(1S)-1-(4-chlorophenyl)-3-hydroxypropyl]-1-(7H-pyrrolo[2,3-d]pyrimidin-4-yl)piperidine-4-carboxamide]
Mean Loewe synergy score, NCI-H1836 [1]: 1.9 | Mean Loewe synergy score, NCI-H1876 [2]: 0.7 | Mean Loewe synergy score, NCI-H209 [3]: 0.85 | Mean Loewe synergy score, NCI-H526 [4]: 4.3 | Mean Loewe synergy score, NCI-H69 [5]: 7.38 | Mean Loewe synergy score, DOHH2 [6]: 2.89 | Mean Loewe synergy score, DB [7]: 0.29 | Mean Loewe synergy score, WSU-DLCL2 [8]: 0.95 | Mean Loewe synergy score, RAJI [9]: 2.97 | Mean Loewe synergy score, SUDHL6 [10]: −1.92 | Mean Loewe synergy score, MM.1S [11]: 2.63 | Mean Loewe synergy score, OPM-2 [12]: −1 | Mean Loewe synergy score, U266B1 [13]: 1.76 | Mean Loewe synergy score, RPMI 8226 [14]: 4.81 | Mean Loewe synergy score, KMS-34 [15]: 7.48

Cc1cc(C)cc(NC(=O)OCc2ccc3c(c2)C(=O)N(C2CCC(=O)NC2=O)C3)c1 (centres unmarked) [Compound 1-4, [2-(2,6-dioxopiperidin-3-yl)-3-oxo-2,3-dihydro-1H-isoindol-5-yl]methyl N-(3,5-dimethylphenyl)carbamate]
Mean Bliss synergy score [16, 20]: 10.76 | Mean Loewe synergy score [16, 20]: 7.63 | Mean Bliss synergy score [16, 21]: 36.63 | Mean Loewe synergy score [16, 21]: 11.29 | Mean Bliss synergy score [16, 22]: 30.43 | Mean Loewe synergy score [16, 22]: 14.67 | Mean Bliss synergy score [16, 23]: 15.82 | Mean Loewe synergy score [16, 23]: 6.64 | Mean Bliss synergy score [16, 24]: 8.74 | Mean Loewe synergy score [16, 24]: 1.29 | Mean Bliss synergy score [16, 25]: 16.31 | Mean Loewe synergy score [16, 25]: 8.47 | Mean Bliss synergy score [16, 26]: 5.71 | Mean Loewe synergy score [16, 26]: −1.80 | Mean Bliss synergy score ([16]; combined with Alpelisib (41 nM to 10 uM), CAL51 cell line, mean across dose response matrix, 72 hrs): 36.63 | Mean Bliss synergy score [17, 27]: 9.41 | Mean Loewe synergy score [17, 27]: 7.90 | Mean Bliss synergy score [17, 28]: 17.96 | Mean Loewe synergy score [17, 28]: 9.59 | Mean Bliss synergy score [17, 29]: 17.17 | Mean Loewe synergy score [17, 29]: 9.85 | Mean Bliss synergy score [17, 30]: 9.39 | Mean Loewe synergy score [17, 30]: 7.58 | Mean Bliss synergy score [17, 31]: 3.51 | Mean Loewe synergy score [17, 31]: 1.27 | Mean Bliss synergy score [17, 32]: 14.55 | Mean Loewe synergy score [17, 32]: 7.79 | Mean Bliss synergy score [17, 33]: 4.26 | Mean Loewe synergy score [17, 33]: 1.36 | Mean Bliss synergy score [18]: 4.94 | Mean Loewe synergy score [18]: 5.54 | Mean Bliss synergy score [19]: 2.10 | Mean Loewe synergy score [19]: 2.36
